Reference: patent publication US9212209B2, “Screening methods for spinal muscular atrophy” (Indiana University Research and Technology Corporation, priority 2012, dated 2015)
pEC50: −log10 of the molar value. Where two headings read alike, the source gives them in different places. Each block holds one compound with its values, some of them ahead of it.

What was measured:
SMN2-luciferase reporter = SMN2-luciferase reporter assay (clonal HEK-293 SMN2-luc cells); format: cell-based, human; design: % activation: concentration or dose not given beside the values; details: for pEC50 / Emax: Homo sapiens; for Active / % activation: reporter assay; for Emax: read-out: Max % Activity; for % activation: Table 5
Experimental: The reporter cell lines were plated at 50,000 cells per well in 96-well plates and incubated overnight. Compounds were added to each well and incubated at 37° C. overnight. The final DMSO concentration was 0.1%. Luciferase activity was assayed using either STEADYGLO (PROMEGA E2510) or DUALGLO (PROMEGA E2920) luciferase using the WALLAC ENVISION multilabel reader. For detailed assay conditions see Table 2A. All data points were transformed from CPS to percent increase over basal expression in the treated control wells (DMSO or H2O as appropriate).
Plates were sealed with porous paper tape and incubated for 24 hours. […] For comparison, data points were transformed from CPS to percent activation over basal expression in the DMSO treated control wells.
For comparison, all data points are expressed as percent increase over basal luciferase expression in the control cells.

[1] = system: SMN-luciferase transcripts; assay: qRT-PCR of SMN-luciferase transcripts in SMN2-luc cells; format: cell-based, human; details: 24 hours, relative to DMSO, normalized to GAPDH, aclarubicin at 300 nM, words
Experimental: Compounds were tested at three concentrations that display maximal activity in the luciferase assay. Cells were treated as described above for the luciferase assay. Cells were harvested by trypsinization, neutralized with trypsin inhibitor, and washed. RNA was isolated from the cells using TRIZOL Reagent (Invitrogen 15596-026). cDNA was generated using the IMPROM-II Reverse Transcription System (Promega A3801).
The forward primer pair recognizes the exon 5-6 junction, which includes a restriction site that was engineered into the reporter and will exclude amplification of endogenous SMN mRNA. The reverse primers recognize either exon 7 or luciferase for detection of full-length or total SMN-luciferase transcripts respectively. For a reference control, cDNA from the housekeeping gene glyceraldehyde-3-phosphate dehydrogenase (GAPDH) was amplified. The primers used include SMN exon5-forward ([…]) (SEQ ID NO: 3), luciferase-reverse ([…]) (SEQ ID NO: 4), exon7-reverse ([…]) (SEQ ID NO: 5), GAPDH-reverse (G3A) ([…]) (SEQ ID NO: 6) and GAPDH-forward (G3S) ([…]) (SEQ ID NO: 7). qPCR was performed as described in the protocol for iQ SYBRGREEN SUPERMIX (Biorad 170-8882) using an EPPENDORF Mastercycler ep realplex^4 Thermo Cycler. Reactions were incubated for a 10 minute, 94° C. hot start followed by 45 cycles of the following: 94° C. for 45 second, 60° C. for 15 seconds, 72° C. for 45 seconds. Melting curves for each reaction were obtained. Each sample was assayed in triplicate and every plate contained a 5-point cDNA dilution course to calculate amplification efficiency for each primer pair. The Pfaffl method was used to determine the change in transcript levels relative to the DMSO and normalized to GAPDH (Pfaffl, M. W., “A new mathematical model for relative quantification in real-time RT-PCR,” Nucleic Acids Res 2001, 29(9), 3e45).
Based on the new reporter design, it was predicted that this screen could detect increased SMN-luciferase protein levels caused by compounds that stimulate SMN2 transcription, exon 7 inclusion, or by increasing the half-life of the SMN mRNA or protein. Quantitative reverse transcriptase PCR (qRT-PCR) was used to analyze SMN-luciferase mRNAs. All assays used RNA from control and compound-treated SMN2-luc cells and primers pairs were chosen to amplify only the SMN-luciferase derived transcripts (FIG. 4A). A pair of primers were used that specifically detects both full-length (exon 7 included) and Δ7 (exon 7 excluded) SMN-luciferase transcripts (primers 1 and 3). To measure changes in exon 7 splicing efficiency, a primer pair was used that detects only the full-length (exon 7 included) SMN-luciferase transcript (primers 1 and 2).
For each sample, the percent increase in the amount of total SMN-luciferase transcripts (gray bar) and exon 7 included full-length SMN-luciferase transcripts (white bar) was plotted (FIG. 4). Compounds that increase transcription should show increased total SMN-luciferase transcripts (gray bar) with a proportional increase for exon 7 included transcripts (white bar), assuming that proper splicing of exon 7 is not rate limiting. Compounds that stimulate exon 7 inclusion should increase the amount of exon 7 included full-length transcript (white bar) detected with little to no change in the expression of total SMN-luciferase transcripts (gray bar). In these experiments, cells were treated with compound, harvested, and each cell pellet was divided for isolation of RNA and to assay luciferase activity. Each qRT-PCR sample was normalized to the housekeeping gene glyceraldehyde-3-phosphate dehydrogenase (GAPDH). The Pfaffl method was used to calculate the change in the amount of total SMN mRNA and determine whether compound treatments increased SMN transcripts.

[2] = HEK293, reporter assay, Table 6, read-out: Ec50
[3] = HEK293, reporter assay, Table 6

pEC50 (SMN2-luciferase reporter; HEK293, cell-based reporter, known SMN2 modulating compounds, read-out: EC50): 6.34
SMILES: CC(C(=O)O)c1ccc(N2Cc3ccccc3C2=O)cc1 (centres unmarked) [Indoprofen, indoprofen, reference compound]
Max. fold increase (SMN2-luciferase reporter; cell-based reporter response to known SMN2 modulating compounds): 3 fold
exon 7 included full-length SMN-luciferase transcripts [1]: No consistent change
total SMN-luciferase transcripts [1]: No consistent change

SMILES: CC(/C=C/C(=O)NO)=C\[C@@H](C)C(=O)c1ccc(N(C)C)cc1 [TSA]
exon 7 included full-length SMN-luciferase transcripts [1]: increased
total SMN-luciferase transcripts [1]: increased

SMILES: CC1CC(C(=O)Nc2cccnc2)=NO1 (centres unmarked) [CAL-9]
Active (SMN2-luciferase reporter; Table 6): No

SMILES: CCOC(=O)C1C(=O)Nc2cc(OC)c(OC)c(OC)c2C1c1cc(Cl)ccc1F (centres unmarked) [LDN-212388]
Active (SMN2-luciferase reporter; Table 6): No

SMILES: COC1=CC2NC(=O)CC(c3cc(C(N)O)ccc3F)C2C(OC)=C1OC (centres unmarked) [LDN-212358]
Active (SMN2-luciferase reporter; Table 6): No

pEC50 (SMN2-luciferase reporter; [2]): 6.15
SMILES: Cn1c(C(=O)Nc2cc(C(C)(C)C)on2)cc2ccccc21 [LDN-211910]
Emax (SMN2-luciferase reporter; [3]): 100%
Active (SMN2-luciferase reporter; Table 6): Yes

SMILES: COC(=O)c1ccc2nc(NC(=O)C(C)C)sc2c1 [Compound 110116]
% activation (SMN2-luciferase reporter): 97%

SMILES: COc1cc2c(c(OC)c1)C(c1c(Cl)cccc1Cl)CC(=O)N2 (centres unmarked) [LDN-76515]
Active (SMN2-luciferase reporter; Table 6): No

SMILES: COc1ccc(Cl)cc1NC(=O)c1cc(C(C)C)on1 [CAL-29]
Active (SMN2-luciferase reporter; Table 6): No

pEC50 (SMN2-luciferase reporter; [2]): 5.19
SMILES: CC1CC(C(=O)Nc2ccc(Cl)cc2F)=NO1 (centres unmarked) [CAL-6]
Emax (SMN2-luciferase reporter; [3]): 180%
Active (SMN2-luciferase reporter; Table 6): Yes

pEC50 (SMN2-luciferase reporter; [2]): 6.10
SMILES: CC(C)(C)c1cc(NC(=O)c2cnc3ccccc3c2)no1 [LDN-211906]
Emax (SMN2-luciferase reporter; [3]): 250%
Active (SMN2-luciferase reporter; Table 6): Yes

pEC50 (SMN2-luciferase reporter; [2]): 4.52
SMILES: CN(C(=O)c1cc(C2CC2)on1)c1ccccc1 [CAL-37]
Emax (SMN2-luciferase reporter; [3]): 143%
Active (SMN2-luciferase reporter; Table 6): Yes

SMILES: COc1cc2c(c(OC)c1OC)C(c1cc(Cl)ccc1F)C(C)C(=O)N2 (centres unmarked) [LDN-213773]
Active (SMN2-luciferase reporter; Table 6): No

pEC50 (SMN2-luciferase reporter; [2]): 5.10
SMILES: COc1ccc(NC(=O)C2=NOC(C)C2)cc1 (centres unmarked) [CAL-4]
Emax (SMN2-luciferase reporter; [3]): 211%
Active (SMN2-luciferase reporter; Table 6): Yes

SMILES: COc1cc2c(c(OC)c1OC)C(c1coc3ccccc13)CC(=O)N2 (centres unmarked) [LDN-212389]
Active (SMN2-luciferase reporter; Table 6): No/Weak

SMILES: COCCOc1c(OC)cc2c(c1OC)C(c1cc(Cl)ccc1F)CC(=O)N2 (centres unmarked) [LDN-213772]
Active (SMN2-luciferase reporter; Table 6): No

SMILES: O=C1CCc2cc(C(=O)CSc3ccccc3)ccc2N1 [Compound 98541]
% activation (SMN2-luciferase reporter): 124%

pEC50 (SMN2-luciferase reporter; [2]): 4.80
SMILES: CC(C)c1cc(C(=O)Nc2ccccc2C(F)(F)F)no1 [CAL-31]
Emax (SMN2-luciferase reporter; [3]): 154%
Active (SMN2-luciferase reporter; Table 6): Yes

SMILES: CC1CC(C(=O)Nc2cnccn2)=NO1 (centres unmarked) [CAL-2]
Active (SMN2-luciferase reporter; Table 6): No

pEC50 (SMN2-luciferase reporter; [2]): 5.96
SMILES: Cc1ccc(C(=O)Nc2cc(C(C)(C)C)on2)cc1C [LDN-211912]
Emax (SMN2-luciferase reporter; [3]): 150%
Active (SMN2-luciferase reporter; Table 6): Yes

SMILES: COc1cc2c(c(OC)c1OC)C(c1cccc(Cl)c1Cl)CC(=O)N2 (centres unmarked) [CAL-56]
Active (SMN2-luciferase reporter; Table 6): No

SMILES: COc1cc2c(c(OC)c1OC)C(c1cc(Br)ccc1F)CC(=O)N2C (centres unmarked) [LDN-212263]
Active (SMN2-luciferase reporter; Table 6): No

SMILES: O=C(NCCn1ccc2ccccc21)c1ccc2c(c1)OCO2 [Compound 107992]
% activation (SMN2-luciferase reporter): 121%

SMILES: O=C(c1cc(C2CC2)on1)N1CCCc2ccccc21 [CAL-36]
Active (SMN2-luciferase reporter; Table 6): No

SMILES: COc1cc2c(c(OC)c1OC)C(c1ccc(Cl)cc1Cl)CC(=O)N2 (centres unmarked) [LDN-76074]
Active (SMN2-luciferase reporter; Table 6): No/Weak

SMILES: COc1cc2c(c(OC)c1OC)C(c1cccnc1Cl)CC(=O)N2 (centres unmarked) [LDN-212390]
Active (SMN2-luciferase reporter; Table 6): No
